The record followed here is patent US9035059B2, “Nitrogen-containing condensed heterocyclic compound” (TAISHO PHARMACEUTICAL CO., LTD., priority 2011, dated 2015).

The structures appear in SMILES notation.

human MGAT2, sequence (Q3SYC2 whole entry): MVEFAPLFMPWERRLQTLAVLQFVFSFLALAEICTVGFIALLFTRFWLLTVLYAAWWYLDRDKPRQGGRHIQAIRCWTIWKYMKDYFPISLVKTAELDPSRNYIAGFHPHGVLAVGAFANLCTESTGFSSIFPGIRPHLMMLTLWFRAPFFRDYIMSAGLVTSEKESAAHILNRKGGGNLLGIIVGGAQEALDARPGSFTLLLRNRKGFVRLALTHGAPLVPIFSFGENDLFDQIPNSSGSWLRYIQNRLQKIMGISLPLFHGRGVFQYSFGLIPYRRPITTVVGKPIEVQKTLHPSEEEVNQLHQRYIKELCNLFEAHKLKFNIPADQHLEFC

One test concerns the target human MGAT2 (Homo sapiens (Human), UniProt Q3SYC2). Put plainly: Test Example 1: Test of MGAT2 inhibitory action (human MGAT2 enzyme fraction from Sf9 cells, free CoA detected by CPM fluorescence). Conditions: human MGAT2 enzyme fraction expressed in Sf9 insect cells, 0.5 μg/ml, 2-monooleoyl glycerol 0.78 μM, oleoyl-CoA 5.3 μM, room temperature 20 min, listed as 10-9, read-out: Activity Value [nM] (IC50, concentration at which 50% of produced free CoA was inhibited). Format: biochemical. Here is the method: The MGAT2 inhibitory action of the inventive compound was measured by the methods described in Test Examples as shown below. The MGAT enzyme activity was measured based on the amount of an indicator, free Coenzyme A (CoA) which is generated by the reaction shown below, using a sulfhydryl reactive pigment (7-diethylamino-3-(4-maleimidophenyl)-4-methylcoumarin; hereinafter, sometimes abbreviated as CPM).
A test for MGAT2 inhibitory action of test compounds was conducted in accordance with a partially modified version of the method described in John F. Lockwood et al., Am. J. Physiol. Endocrinol. Metab., 2003, 285, E927.
Bac-to-Bac Baculovirus Expression System (Life Technologies Japan) was used to express human MGAT2 in insect cells (Sf9) (Life Technologies Japan). These cells were sonicated and centrifuged at 100,000 g×1 hr to give a precipitate. The precipitate was used as a human MGAT2 enzyme fraction in this assay.
This test was conducted using a black flat-bottom 96-well plate (Corning). A buffer solution with final concentrations of 5 mM magnesium chloride, 100 mM sucrose and 100 mM Tris-HCl (pH=7.5) was prepared and test compounds prepared in various concentrations using dimethyl sulfoxide were added thereto to give a final dimethyl sulfoxide concentration of 1%. The MGAT2 enzyme fraction was added thereto to give a final concentration of 0.5 μg/ml and phosphatidylcholine, 2-monooleoyl glycerol and oleoyl-CoA were added thereto to give final concentrations of 7.5 μM, 0.78 μM and 5.3 μM, respectively, before starting a reaction. The reaction was performed at room temperature for 20 min.
After 20 min, a CPM-containing solution was added thereto to give a final concentration of 5 μM before stopping the MGAT reaction. After 1 hr, a fluorescence detector (Infinite 200 from Tecan Japan) was used to measure the CPM fluorescence value of each well (excitation 380 nm, emission 460 nm).
As to `CCCCCCCCOc1ccc(NS(=O)(=O)c2ccc3c(c2)CCN(C(C)Cc2ccc(C(C)(C)C)cc2)C3)c(F)c1` (stereo not drawn) [Working Example 10-9], the IC50 amounted to 96 nM.

Still in this test, the particulars now being: human MGAT2 enzyme fraction expressed in Sf9 insect cells, 0.5 μg/ml, 2-monooleoyl glycerol 0.78 μM, oleoyl-CoA 5.3 μM, room temperature 20 min, listed as 10-10, read-out: Activity Value [nM] (IC50, concentration at which 50% of produced free CoA was inhibited).
`CCCCCCCCOc1ccc(NS(=O)(=O)c2ccc3c(c2)CCN(C(C)Cc2ccc(C(C)(C)C)cc2)C3)c(F)c1` (stereo not drawn) [Working Example 10-10]: the IC50 worked out at 97 nM.

The same test, now with this note: human MGAT2 enzyme fraction expressed in Sf9 insect cells, 0.5 μg/ml, 2-monooleoyl glycerol 0.78 μM, oleoyl-CoA 5.3 μM, room temperature 20 min, read-out: Activity Value [nM] (IC50, concentration at which 50% of produced free CoA was inhibited).
Regarding `CC(C)Oc1ccc(CN2CCc3cc(S(=O)(=O)Nc4ccc(CCCC5CCCC5)cc4F)ccc3C2)cc1` [Working Example 7-45], the IC50 is 199 nM.

Take `O=S(=O)(Nc1ccc(CCCC2CCCC2)cc1F)c1ccc2c(c1)CCN(Cc1ccc(OC(F)(F)C(F)F)cc1)C2` [Working Example 7-50]: the IC50 turned out to be 273 nM.

Regarding `O=S(=O)(Nc1ccc(CCCC2CCCC2)cc1F)c1ccc2c(c1)CCN(CCCC(F)(F)F)C2` [Working Example 7-54], the IC50 is 162 nM.

Turning to `CC(C)(C)c1ncc(CN2CCc3cc(S(=O)(=O)Nc4ccc(CCCC5CCCC5)cc4F)ccc3C2)cn1` [Working Example 7-56], the IC50 was 52 nM.

Consider `CC(C)(C)c1cnc(CN2CCc3cc(S(=O)(=O)Nc4ccc(CCCC5CCCC5)cc4F)ccc3C2)cn1` [Working Example 7-60], for which the IC50 worked out at 233 nM.

Turning to `CC(C)(C)c1ccc(CCN2CCc3cc(S(=O)(=O)Nc4ccc(OCCCCc5ccccc5)cc4F)ccc3C2)cc1` [Working Example 8-1, 2-[2-(4-tert-Butylphenyl)ethyl]-N-[2-fluoro-4-(4-phenylbutoxy)phenyl]-1,2,3,4-tetrahydroisoquinoline-6-sulfonamide], the IC50 came out at 70 nM.

On to `CC(C)(C)c1ccc(CCN2CCc3cc(S(=O)(=O)Nc4ccc(OCCCc5ccccc5)cc4F)ccc3C2)cc1` [Working Example 8-2], for which the IC50 is 173 nM.

For `CCCCCCOc1ccc(NS(=O)(=O)c2ccc3c(c2)CCN(CCc2ccc(C(C)(C)C)cc2)C3)c(F)c1` [Working Example 8-3], the IC50 was 133 nM.

Consider `CCCCCCOc1ccc(NS(=O)(=O)c2ccc3c(c2)CCN(CCc2cnc(C(C)(C)C)cn2)C3)c(F)c1` [Working Example 9-20], for which the IC50 amounted to 212 nM.

On to `CCCCCCOc1ccc(NS(=O)(=O)c2ccc3c(c2)CCN(CCc2ncc(C(C)(C)C)cn2)C3)c(F)c1` [Working Example 9-21], for which the IC50 amounted to 164 nM.

As to `CC(c1ccc(C(C)(C)C)nc1)N1CCc2cc(S(=O)(=O)Nc3ccc(OCCCc4ccccc4)cc3F)ccc2C1` (stereo not drawn) [Working Example 11-2], the IC50 was determined as 121 nM.

For the compound `CC(c1ccc(C(C)(C)C)cc1)N1CCc2cc(S(=O)(=O)Nc3ccc(OCCCc4ccccc4)cc3F)ccc2C1` (stereo not drawn) [Working Example 11-3], the IC50 worked out at 116 nM.

On to `CCC(c1ccc(C(C)(C)C)cc1)N1CCc2cc(S(=O)(=O)Nc3ccc(OCCCc4ccccc4)cc3F)ccc2C1` (stereo not drawn) [Working Example 11-4], for which the IC50 is 235 nM.
